For the assay, the system named is normal human astrocytes (NHA). Nature of the assay: Gene expression in NHA exposed to inflammatory cytokines (qPCR). The assay is classed as cell-based. To be noted: for SNCA expression induction: NHA exposed to cytokine for 24 hours, no significant difference between infected and uninfected cells; for LCN2 expression induction: NHA, HPgV-infected and uninfected, exposed to cytokine for 24 hours. The procedure:
As previously stated, iPSC-derived PD astrocytes show increased expression of LCN2 and GFAP following exposure to inflammatory conditions. Inflammation can additionally induce A1 phenotypic skewing in astrocytes.^4 Therefore, the analysis of mtDNA, PD astrocyte-associated genes, and A1/A2 skewing was repeated on NHA that were exposed to the inflammatory cytokine IL1β, IFNγ, or TNFα for 24 hours. mtDNA copy number was reduced in infected cells exposed to cytokines as compared to uninfected cells exposed to cytokines (FIG. 5A; IL1β p=0.0004; IFNγ p=0.001; TNFα p=0.03). […] SNCA expression was induced 10-fold following exposure to IL1β.
Normal human astrocytes (NHA): Cryopreserved NHA were obtained from Lonza. NHA were maintained in Astrocyte Basal Medium with Astrocyte Growth Medium SingleQuot supplements (Lonza). NHA were seeded at 5×10^3 cells/cm and allowed to reach confluency before splitting and seeding into new cell culture vessels, which took approximately 10 days. Medium was changed 24 hours after seeding and every subsequent 48 hours. NHA were discarded at passage 10.
Quantification of PD astrocyte associated gene expression was performed on similarly extracted RNA, following DNAse digestion and isopropanol precipitation. DNAse-treated RNA was resuspended in 50 μL of nuclease-free H2O, quantitated using the Qubit BR ssRNA kit, and diluted to 40 ng/μL. Commercially available TaqMan gene expression assays against GFAP (#Hs00909233; Fisher Scientific), LCN2 (#Hs01008571), SNCA (#Hs00240906), and ITPR2 (#Hs00181916), using FAM as a detector, were each multiplexed with GAPDH (housekeeping gene; #Hs02786624) using VIC as a detector. Each assay was run in duplicate 20 μL reactions, with 5 μL of diluted template RNA, 1 μL of each appropriate 20× assay, and 5 μL of TaqMan Fast Virus 1-step master mix. ΔΔCT was calculated as previously described.
Background: In qPCR the cycle at which signal appears reflects the starting amount.

With IFNγ: inflammatory cytokine, the SNCA expression induction entry is recorded as “observed to a lesser extent”.

As to IL1β: inflammatory cytokine, the SNCA expression induction turned out to be 10 fold; the LCN2 expression induction result was “induced LCN2 expression in both infected and uninfected cells”.

For TNFα, the SNCA expression induction entry is “observed to a lesser extent” and the LCN2 expression induction result is recorded as “significantly induced expression of LCN2 in infected cells but not uninfected cells”.

These data come from patent US20240287575A1, “Role of Human Pegivirus (HPGV) in Parkinson's Disease: Implications for Diagnosis and Treatment” (Northwestern University, priority 2023, published 2024).
